Consider 4 compounds from patent publication US20100285990A1, “NEURITE OUTGROWTH AS AN ASSAY FOR MEMORY ENHANCING COMPOUNDS” (priority 2007, published 2010).

One data set relates to NS1 cells. Nature of the data set: Neurite outgrowth assay in Neuroscreen 1 (NS1) cells. In kind it is cell-based. The note with it: for number of branch points: FIG. 5B. The method, then: The effect of CREB enhancers on neurite outgrowth in NS1 cells was assayed. On-target siRNAs (Dharmacon Inc., Lafayette, USA) were used for in vitro testing (neurite outgrowth in NS 1 cells). Neuroscreen 1 (NS1) cells (Cellomics Inc.) were transfected according to the manufactures specification using Dharmafect 3.
Neuroscreen 1 (NS1) cells were cultured on collagen type I coated 75 cm^2 plastic flasks (Biocoat, Becton Dickinson) in a humidified incubator at 37° C. in 5% CO2. Cells were cultured in RPMI complete cell culture medium (Cambrex) supplemented with 10% heat-inactivated horse serum (Invitrogen), 5% heat-inactivated fetal bovine serum (Cellgro), and 2 mM L-glutamine (Cambrex). For expansion, the cells were trypsinized and split at 80% confluence. The cell culture media was changed every 2 to 3 days.
NS1 cells were harvested as if they were being passaged and then counted using a Coulter counter (Becton Dickinson Coulter Z1). Cells were seeded in 96-well collagen I coated plates at a density of 2000 cells per well in volume of 200 μl. RPMI media was supplemented with 200 ng/ml nerve growth factor (NGFβ, Sigma). NS 1 cells were incubated for 72 hours to allow differentiation to a neuronal phenotype. NGFβ was then diluted to 50 ng/ml and the cells were treated with siRNA or compound at the indicated doses, respectively.
Neurite outgrowth assays were performed using the Cellomics Arrayscan II Vti HCS scanner. Cells were stained using the HitKit™ HCS reagent kit (Cellomics) according to the manufactures specifications. The assay is based on immunoflourescence using an antibody that has been validated to specifically label both neurites and neuronal cell bodies. Briefly, cells were fixed in 3.7% formaldehyde and nuclei stained with Hoechst dye. Cells were then washed in neurite outgrowth buffer and neurites stained with Cellomics' proprietary primary antibody for neurite outgrowth high content screening. After 1 hour of incubation with the primary antibody, the cells were washed again and then incubated with fluorescently labeled secondary antibody solution for 1 hour. Antibody-stained 96-well plates were store at 4° C. in the dark until scanning. Plates were scanned using Cellomics ArrayScan II Vti HCS scanner. The neurite outgrowth assay uses two channels to carry out the scan. Channel 1 detects the Hoechst Dye and is used by the software to identify cells and for automated focusing. Channel 2 detects the FITC fluorescence of the secondary antibody and is used by the software to calculate all data generated in reference to neurites.

In another data set the test system is mice. As to the kind of experiment: Contextual fear conditioning (freezing behavior) for long term memory. The format is in vivo, mouse. The procedure: Young-adult (10-12 weeks old) C57BL16 male mice (Taconic, N.Y.) were used for biochemistry and behavioral experiments. Upon arrival, mice were group-housed (5 mice) in standard laboratory cages and maintained on a 12:12 hours light-dark cycle. The experiments were always conducted during the light phase of the cycle. The day before the initiation of the experiment, mice were single housed in individual cages and maintained so till the end of the experiment. With the exception of training and testing times, the mice had ad lib access to food and water.
To assess contextual memory, a standardized contextual fear conditioning task (Bourtchuladze, et al., Cell 79(1):59-68 (1994)) was used. On the training day, the mouse was placed into the conditioning chamber (Med Associates, Inc., VA) for 2 minutes before the onset of the unconditioned stimulus (US), a 0.5 mA foot shock of 2 seconds duration. The US was repeated with a 1 minute inter-trial interval between shocks. After the last training trial, the mice were left in the conditioning chamber for another 30 sec and were then placed back in their home cage. Memory retention was tested one or four days after training. Results were identical for both time points. The mouse was placed into the same training chamber and conditioning was assessed by scoring freezing behavior, as defined by the complete lack of movement. Total testing time lasted 3 minutes. The proceeding of each experiment was filmed. After each experimental subject, the experimental apparatus was thoroughly cleaned with 75% ethanol, water, dried, and ventilated.
Mice were trained with one, two, five or ten trials of contextual conditioning. Four days later contextual memory was tested by scoring freezing behavior. […] Next, mice received weak training (two trials) to induce submaximal memory, or strong training (five trials) to induce maximum memory. Directly after training, the CREB enhancer Rolipram or vehicle was injected into the hippocampus. Contextual memory was tested by scoring freezing behavior four days after training.
For intrahippocampal Rolipram injection or Gpr12 siRNA treatment, mice were anesthetized with 20 mg/kg Avertin and implanted with a 33-gauge guide cannula bilateraly into the dorsal hippocampus (coordinates: A=−1.8 mm, L=+/−1.5 mm to a depth of 1.2 mm) (Franklin and Paxinos, 1997). Five to nine days after recovery from surgery, animals were injected with drug or vehicle control. […]
To assess contextual memory, a standardized contextual fear conditioning task (Bourtchuladze, et al, Cell 79(1):59-68 (1994)) was used. […] The mouse was placed into the same training chamber and conditioning was assessed by scoring freezing behavior, as defined by the complete lack of movement. […]

In data set [1] the test system is mouse hippocampal neurons. Nature of the data set: Neurite outgrowth assay in mouse hippocampal neurons. In kind it is cell-based. The procedure: Mouse hippocampal neurons were cultured for three days and then treated with HT-2175 or Rolipram for 24 hours. […] MEAN+/−SEM of eight experimental replicate wells (each measuring neurite length of at least 100 neurons) is shown. […] Mice were treated with HT-2175 or vehicle and then trained in contextual conditioning.
Cryo-preserved NS 1 neurons were purchased from the University of Ottawa. Neurons were cultured on poly-D-lysine coated 96 well plates in serum free Neurobasal medium supplemented with 2% B27, 500 μM L-glutamine, and 1 mM pyruvate. Plating density was 20,000 neurons per well. For neurite outgrowth assays, neurons were cultured for 2-3 days and then treated for 24 hours with Rolipram, HT-2175, or HT-2157, respectively.

The test system of another data set is CREB pathway. As to the kind of experiment: CRE-luciferase reporter assay of CREB activation in Neuro2A cells. The format is cell-based. The note with it: p<0.001. An excerpt: CREB activity assays were constructed. Neuro2A cells were transfected with a CREB expressing or control vectors using standard molecular biology techniques. CRE-luciferase activity was monitored in the presence or absence of Forskolin ([…]). CREB over-expression led to an increase in the activation of the CRE-reporter construct (n=3 per group, * indicates p<0.05). CRE-luciferase reporter thus measures activation of the CREB pathway. In FIG. 1B, the effect of Rolipram on CREB-activation is shown. Neuro2A cells were treated with the PDE4 inhibitor Rolipram and CREB activation monitored via CRE-liciferase activation.
The effect of Rolipram on CREB-activation was assayed in the presence of 0.5 μM Forskolin. Neuro2A cells were treated with the PDE4 inhibitor Rolipram and CREB activation monitored via CRE-liciferase activation in the presence of 0.5 μM Forskolin.

[2] abbreviates: siRNA treatment 48 hours, compared to vehicle alone.

For `O=C1C(=Nc2cccc(C(F)(F)F)c2)c2ccccc2N1c1ccccc1` [HT-2157], the “total neurite length per cell” value with NS1 cells (FIG. 6A) is “facilitates neurite outgrowth”. For the same compound, the “number of branch points per dendrite” value in the data set with NS1 cells (FIG. 6B) is listed as “facilitates neurite outgrowth”. Moreover, the contextual memory entry in the data set on mice (contextual fear conditioning with two trials, FIG. 6D) is “dose dependently facilitates contextual memory”. Moreover, the “number of branch points” value in data set [1] (mouse hippocampal neurons, FIG. 6C) is given as “dose-dependently facilitates neurite outgrowth”.
For the compound `COc1ccc(C2CNC(=O)C2)cc1OC1CCCC1` (centres unmarked) [Rolipram], the neurite branch points result with NS1 cells (increasing doses in the presence of 5 μM Forskolin) is “dose dependently increase neurite outgrowth”. For the same compound, in the data set with NS1 cells (increasing doses in the presence of 5 μM Forskolin, FIG. 3B), the neurite length entry is “dose dependently increase neurite outgrowth”. Moreover, the “CREB activation monitored via CRE-luciferase activation” value is on record as “activates CREB-dependent transcription” with CREB pathway (FIG. 1B, n=8 per group) and “activates CREB-dependent transcription” in the data set with CREB pathway (in the presence of 0.5 μM Forskolin). The “contextual memory (freezing behavior)” value is reported as “has no effect on maximal memory” in the data set with mice (strong training (five trials), injected into the hippocampus directly after training, tested four days after training) and “dose-dependently facilitates submaximal contextual memory” with mice (weak training (two trials), injected into the hippocampus directly after training, tested four days after training). Moreover, in data set [1] (neurons cultured three days, treated 24 hours, FIG. 4A), the “branch points per neurite” value is given as “facilitate neurite outgrowth”.
As for “Gpr12 siRNA: siRNA against Gpr12; sense GAGGCACGCCCAUC AGAUAUU (SEQ ID NO: 1), anti-sense UAUCUGAUGGGCGUGCCUCUU (SEQ ID NO: 2) (sense GAGGCACGCCCAUCAGAUAUU; chemically modified siSTABLE siRNA, pattern not given here)”, the “number of branch points” value in the data set with NS1 cells (siRNA treatment 48 hours) is given as “significantly enhanced neurite outgrowth”. The neurite length entry in the data set on NS1 cells (setting [2]) is reported as “significantly enhanced neurite outgrowth”. Moreover, the “contextual memory (freezing behavior)” value with mice (siRNA injected repeatedly into hippocampus, weak training (two trials), tested 24 hours later, FIG. 5C) is reported as “facilitates contextual memory”.
For “non-targeting control siRNA: 21mer non-targeting siRNA used as control; SEQ ID NO: 3 and 4 (chain 1 UAGCGACUAAACACAUCAAUU; chain 2 UUGAUGUGUUUAGUCGCUAUU; chemically modified siSTABLE siRNA, pattern not given here)”, the “number of branch points” value with NS1 cells (siRNA treatment 48 hours) is given as “had no effect on branch points”. Further, the neurite length result with NS1 cells (setting [2]) is “had no effect on neurite outgrowth”; in the data set on NS1 cells (siRNA treatment 48 hours, compared to vehicle alone, listed as Non-targeting control siRNA) it was “had no effect on neurite length”.
